Values of other authors, collected in US20090252647A1, “COMPOSITIONS AND METHODS FOR APPLYING ANTIMICROBIALS TO SUBSTRATES” (Crosstex International, Inc., priority 2008, published 2009).

Question: With `CCCCCCCCCCCCCCCCCC[N+](C)(C)CCC[Si](O)(O)O.[Cl-]` [3-(trihydroxysilyl)propyldimethyloctadecyl ammonium chloride] as the molecule, how does the solubility in water read?
Answer: approximately 15 % w/v
